One assay has as its target EGFRL861Q (Homo sapiens, UniProt P00533, L861Q). Briefly: In vitro enzymatic activity assay (Z'-LYTE), EGFR L861Q. It counts as biochemical. The following applies: Z'-LYTE FRET peptide assay; read-out: EGFRL861Q kinase activity (IC50). In short, it runs like this:
(§1)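 Z'-LYTE FRET coupled-enzyme format: kinase phosphorylates FRET peptide substrate, then after one hour a site-specific protease cleaves non-phosphorylated peptide. After another hour, excitation at 400 nm and emission read at 445 and 520 nm.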

Assay [1] concerns A431 (Human epidermal carcinoma, EGFR high expression). Briefly: Cell proliferation by MTT, A431. It is filed as cell-based. The conditions noted are these: A-431, read-out: A431 50% inhibitory concentration (IC50), 72 h.
Assay [2] deals with H1975 (lung cancer cells, EGFR L858R&T790M). Kind of assay: Cell proliferation by MTT, H1975. It is filed as cell-based. The conditions noted are these: Homo sapiens, NCI-H1975, read-out: H1975 50% inhibitory concentration (IC50), 72 h.
In assay [3] the test system is NCI-H820 (lung cancer cells). Kind of assay: Cell proliferation by MTT, NCI-H820. It is filed as cell-based. The following applies: NCI-H820, read-out: NCI-H820 50% inhibitory concentration (IC50), 72 h.
The next assay addresses EGFRL858R (Homo sapiens, UniProt P00533, L858R). Briefly: In vitro enzymatic activity assay (Z'-LYTE), EGFR L858R. The following applies: Z'-LYTE FRET peptide assay; read-out: EGFRL858R kinase activity (IC50). It counts as biochemical. In short, it runs like this: as §1
In assay [4] the test system is HCC827 (lung cancer cells, EGFR E746-A750 deletion). Briefly: Cell proliferation by MTT, HCC827. It counts as cell-based. The conditions noted are these: Homo sapiens, HCC827, read-out: HCC827 50% inhibitory concentration (IC50), 72 h.
In another assay the target is EGFRWT (Homo sapiens, UniProt P00533). Briefly: In vitro enzymatic activity assay (Z'-LYTE), wild type EGFR. It is filed as biochemical. The following applies: Z'-LYTE FRET peptide assay; read-out: EGFRWT kinase activity (IC50). In short, it runs like this:
as §1

The target in a further assay is T1, EGFR T790M kinase (Homo sapiens, UniProt P00533, T790M).
T1 construct: purchased invitrogen PV4803
Kind of assay: In vitro enzymatic activity assay (Z'-LYTE), EGFR T790M. The conditions noted are these: Z'-LYTE FRET peptide assay; read-out: EGFRT790M kinase activity (IC50). It is filed as biochemical. Put shortly: as §1

The next assay addresses EGFRL858R + T790M (Homo sapiens, UniProt P00533, L858R/T790M). Briefly: In vitro enzymatic activity assay (Z'-LYTE), EGFR L858R + T790M. The following applies: Z'-LYTE FRET peptide assay; read-out: EGFRL858R + T790M kinase activity (IC50). It is filed as biochemical. In short, it runs like this: as §1
In the next assay the test system is EGFR kinase. Kind of assay: In vitro kinase assays of FIGS. 1-22 (WT EGFR and EGFR T790M), inhibition at fixed concentration. It is filed as biochemical. The following applies: 1 μM; FIGS. 1-22 (WT EGFR, EGFR T790M). How it is done: In vitro enzymatic activity assay: using Z′-LYTE™ technology (detect fluorescence, coupled-enzyme format, based on the differential sensitivity of phosphorylated and non-phosphorylated peptides to proteolytic cleavage), based on FRET, using Z′ LYTE™ FRET peptide substrate, detect the activity of compounds against enzymatic. (invitrogen, Z′-LYTE™ KINASE ASSAY KIT-TYR 2 PEPTIDE, PV3191) EGFR T790M kinase (invitrogen, PV4803) was diluted progressively, then FRET-peptide, ATP and different concentrations of compound are added to the solution. After one hour, site specific protease which can recognize and cleaves non-phosphorylated FRET-peptide. After another hour, using an excitation wavelength of 400 nm excites, then detect the […] at 445 nm and 520 nm.
In the enzymatic activity assay of 7-(substituted amino)-3,4-dihydropyrimido[4,5-d]pyrimidin-(1H)-ones against the EGFR kinase, due to the presence of the irreversible Michael addition reaction with the protein cysteine sites, some compounds show a relatively good inhibitive activity to both the two kinases. […] The R1 of 7-(substituted amino)-3,4-dihydropyrimido[4,5-d]pyrimidin-(1H)-ones plays a key role in the interaction between compounds and protein, especially when R1 is aryl, it can get the best activity. […]

Chain of EGFRWT (P00533 25-1210): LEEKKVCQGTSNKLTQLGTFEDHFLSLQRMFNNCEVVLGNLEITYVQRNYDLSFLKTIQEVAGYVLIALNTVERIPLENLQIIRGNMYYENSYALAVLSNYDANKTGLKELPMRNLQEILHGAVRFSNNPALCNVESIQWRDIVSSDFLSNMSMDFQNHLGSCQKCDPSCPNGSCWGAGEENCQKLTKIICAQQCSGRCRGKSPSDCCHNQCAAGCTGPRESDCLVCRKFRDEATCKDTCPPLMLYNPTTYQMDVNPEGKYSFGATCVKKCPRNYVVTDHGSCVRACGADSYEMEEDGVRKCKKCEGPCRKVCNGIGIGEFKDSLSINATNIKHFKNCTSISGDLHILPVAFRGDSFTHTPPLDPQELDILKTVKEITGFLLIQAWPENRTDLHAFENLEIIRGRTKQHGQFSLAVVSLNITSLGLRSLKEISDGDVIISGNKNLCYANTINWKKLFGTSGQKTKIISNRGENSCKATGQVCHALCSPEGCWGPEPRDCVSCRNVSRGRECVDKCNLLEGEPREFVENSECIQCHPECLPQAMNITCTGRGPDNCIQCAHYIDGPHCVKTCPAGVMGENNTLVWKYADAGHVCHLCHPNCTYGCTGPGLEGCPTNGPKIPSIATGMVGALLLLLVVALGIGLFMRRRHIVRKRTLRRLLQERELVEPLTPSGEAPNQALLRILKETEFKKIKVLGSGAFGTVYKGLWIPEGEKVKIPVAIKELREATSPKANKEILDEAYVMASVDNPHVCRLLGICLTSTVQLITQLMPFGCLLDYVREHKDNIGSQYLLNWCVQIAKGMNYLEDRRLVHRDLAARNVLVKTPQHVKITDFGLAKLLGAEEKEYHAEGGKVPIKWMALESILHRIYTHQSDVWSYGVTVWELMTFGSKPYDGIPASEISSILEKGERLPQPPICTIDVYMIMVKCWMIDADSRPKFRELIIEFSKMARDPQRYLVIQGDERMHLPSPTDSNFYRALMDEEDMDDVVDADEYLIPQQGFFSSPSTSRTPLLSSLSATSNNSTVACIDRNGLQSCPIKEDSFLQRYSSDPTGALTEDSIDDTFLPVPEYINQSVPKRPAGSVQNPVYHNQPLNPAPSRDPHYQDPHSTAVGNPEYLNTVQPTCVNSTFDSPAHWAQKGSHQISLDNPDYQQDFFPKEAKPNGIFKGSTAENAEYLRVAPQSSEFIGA
Chain of EGFRL861Q (P00533 25-1210 L861Q): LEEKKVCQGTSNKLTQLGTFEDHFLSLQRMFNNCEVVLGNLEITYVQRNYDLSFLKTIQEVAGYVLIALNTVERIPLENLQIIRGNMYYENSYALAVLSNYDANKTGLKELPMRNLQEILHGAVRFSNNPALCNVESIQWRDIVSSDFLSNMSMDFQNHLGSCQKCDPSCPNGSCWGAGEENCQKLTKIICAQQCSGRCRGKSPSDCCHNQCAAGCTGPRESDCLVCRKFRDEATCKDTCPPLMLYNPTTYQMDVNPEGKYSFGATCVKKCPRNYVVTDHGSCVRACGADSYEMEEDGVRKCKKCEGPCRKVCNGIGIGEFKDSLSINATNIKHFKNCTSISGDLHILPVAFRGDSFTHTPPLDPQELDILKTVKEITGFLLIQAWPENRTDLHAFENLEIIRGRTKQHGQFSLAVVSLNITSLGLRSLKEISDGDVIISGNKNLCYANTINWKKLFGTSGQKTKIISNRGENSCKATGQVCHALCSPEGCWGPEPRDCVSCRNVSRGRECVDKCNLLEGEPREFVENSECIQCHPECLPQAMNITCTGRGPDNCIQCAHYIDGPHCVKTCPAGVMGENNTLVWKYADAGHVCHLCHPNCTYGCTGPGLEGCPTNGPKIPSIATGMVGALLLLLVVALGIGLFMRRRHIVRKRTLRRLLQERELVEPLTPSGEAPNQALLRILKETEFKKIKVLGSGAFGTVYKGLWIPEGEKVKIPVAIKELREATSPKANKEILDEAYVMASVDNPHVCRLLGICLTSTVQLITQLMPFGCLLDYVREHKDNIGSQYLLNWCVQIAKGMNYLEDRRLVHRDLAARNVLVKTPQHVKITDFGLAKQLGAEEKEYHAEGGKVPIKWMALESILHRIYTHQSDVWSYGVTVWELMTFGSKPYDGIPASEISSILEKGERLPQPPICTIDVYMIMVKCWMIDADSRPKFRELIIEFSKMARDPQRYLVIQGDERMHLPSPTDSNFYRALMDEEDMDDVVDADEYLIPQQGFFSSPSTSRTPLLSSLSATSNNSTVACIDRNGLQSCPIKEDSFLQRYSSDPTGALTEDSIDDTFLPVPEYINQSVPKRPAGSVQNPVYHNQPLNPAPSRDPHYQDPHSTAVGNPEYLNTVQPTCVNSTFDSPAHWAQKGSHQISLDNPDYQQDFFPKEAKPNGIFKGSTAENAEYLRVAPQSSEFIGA
Chain of EGFRL858R (P00533 25-1210 L858R): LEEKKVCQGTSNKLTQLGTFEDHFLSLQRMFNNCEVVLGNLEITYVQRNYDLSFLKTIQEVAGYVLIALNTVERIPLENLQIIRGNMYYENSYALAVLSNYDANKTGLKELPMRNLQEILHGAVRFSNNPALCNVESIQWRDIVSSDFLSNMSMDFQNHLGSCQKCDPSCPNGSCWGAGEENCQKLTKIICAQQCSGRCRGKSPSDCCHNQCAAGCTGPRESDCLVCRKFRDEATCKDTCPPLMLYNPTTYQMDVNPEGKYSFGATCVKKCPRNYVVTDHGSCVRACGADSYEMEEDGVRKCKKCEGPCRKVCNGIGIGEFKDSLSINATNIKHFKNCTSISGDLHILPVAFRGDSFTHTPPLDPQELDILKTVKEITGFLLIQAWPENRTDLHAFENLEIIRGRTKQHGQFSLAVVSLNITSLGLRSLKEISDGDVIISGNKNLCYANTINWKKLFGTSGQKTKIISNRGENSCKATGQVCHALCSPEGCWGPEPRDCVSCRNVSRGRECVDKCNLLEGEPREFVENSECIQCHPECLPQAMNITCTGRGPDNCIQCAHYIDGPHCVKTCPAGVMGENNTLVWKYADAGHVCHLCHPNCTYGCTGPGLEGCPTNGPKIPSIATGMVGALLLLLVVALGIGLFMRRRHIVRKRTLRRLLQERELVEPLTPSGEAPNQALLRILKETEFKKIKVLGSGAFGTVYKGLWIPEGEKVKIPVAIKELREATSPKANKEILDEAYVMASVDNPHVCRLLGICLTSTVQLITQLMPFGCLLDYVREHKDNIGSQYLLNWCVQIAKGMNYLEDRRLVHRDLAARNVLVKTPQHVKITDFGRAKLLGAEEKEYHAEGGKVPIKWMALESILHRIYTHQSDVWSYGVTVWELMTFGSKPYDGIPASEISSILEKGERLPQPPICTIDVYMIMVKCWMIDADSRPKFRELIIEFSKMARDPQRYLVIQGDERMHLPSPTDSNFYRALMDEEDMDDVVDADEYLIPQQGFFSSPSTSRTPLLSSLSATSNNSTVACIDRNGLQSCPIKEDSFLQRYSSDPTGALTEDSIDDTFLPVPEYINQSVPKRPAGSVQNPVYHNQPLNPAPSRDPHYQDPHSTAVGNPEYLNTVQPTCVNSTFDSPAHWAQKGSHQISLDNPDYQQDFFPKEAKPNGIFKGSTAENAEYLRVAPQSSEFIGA
T1 sequence (P00533 25-1210 T790M): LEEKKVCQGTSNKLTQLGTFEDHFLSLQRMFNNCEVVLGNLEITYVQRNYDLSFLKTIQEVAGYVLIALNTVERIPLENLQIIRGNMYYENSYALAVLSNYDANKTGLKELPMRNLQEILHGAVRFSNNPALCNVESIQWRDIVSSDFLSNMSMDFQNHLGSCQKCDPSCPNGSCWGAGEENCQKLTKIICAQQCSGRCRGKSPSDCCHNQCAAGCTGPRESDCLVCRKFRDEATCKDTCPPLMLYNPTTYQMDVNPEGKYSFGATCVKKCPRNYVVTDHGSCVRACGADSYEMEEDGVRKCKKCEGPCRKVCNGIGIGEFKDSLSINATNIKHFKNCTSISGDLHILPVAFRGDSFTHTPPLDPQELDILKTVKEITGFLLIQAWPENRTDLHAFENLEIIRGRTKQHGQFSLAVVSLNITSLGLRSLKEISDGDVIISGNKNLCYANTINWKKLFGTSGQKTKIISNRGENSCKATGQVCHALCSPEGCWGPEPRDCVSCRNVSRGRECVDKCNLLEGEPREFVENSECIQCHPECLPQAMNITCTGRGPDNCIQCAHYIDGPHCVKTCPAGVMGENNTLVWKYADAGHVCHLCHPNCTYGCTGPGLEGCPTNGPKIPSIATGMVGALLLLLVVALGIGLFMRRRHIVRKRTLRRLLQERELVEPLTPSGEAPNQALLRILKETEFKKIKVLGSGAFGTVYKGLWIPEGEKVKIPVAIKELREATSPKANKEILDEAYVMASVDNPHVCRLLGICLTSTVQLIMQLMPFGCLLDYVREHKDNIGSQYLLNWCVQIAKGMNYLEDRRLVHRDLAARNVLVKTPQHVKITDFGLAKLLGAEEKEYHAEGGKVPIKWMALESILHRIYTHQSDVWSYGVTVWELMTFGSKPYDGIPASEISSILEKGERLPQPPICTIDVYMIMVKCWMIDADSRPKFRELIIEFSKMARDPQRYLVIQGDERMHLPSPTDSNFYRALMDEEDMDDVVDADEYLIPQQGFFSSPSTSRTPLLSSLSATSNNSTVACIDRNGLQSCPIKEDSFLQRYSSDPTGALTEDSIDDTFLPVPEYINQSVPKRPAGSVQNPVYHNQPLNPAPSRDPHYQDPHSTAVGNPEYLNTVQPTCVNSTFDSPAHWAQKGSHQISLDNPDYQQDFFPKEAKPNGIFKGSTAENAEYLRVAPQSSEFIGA

With `C=CC(=O)Nc1cccc(N2C(=O)N(C)Cc3cnc(Nc4ccc(N5CCN(C)CC5)cc4OCC)nc32)c1` [Compound X009, N-(3-(7-(2-ethoxy-4-(4-methylpiperazin-1-yl)phenylamino)-3-methyl-2-oxo-3,4-dihydropyrimido[4,5-d]pyrimidin-1(2H)-yl)phenyl)acrylamide], the IC50 is not above 10 nM on EGFRL861Q; more than 5000 nM in assay [1]; 710 nM in assay [2]; more than 100000 nM in assay [3]; not above 10 nM on EGFRL858R; 3 nM in [4]. In addition, the IC50 is not above 10 nM on EGFRWT, 10 to 100 nM at EGFR T790M kinase and not above 10 nM at EGFRL858R + T790M.
With `C=CC(=O)Nc1cccc(N2C(=O)N(C)Cc3cnc(Nc4ccc(N5CCN(C)CC5)cc4C)nc32)c1` [Compound X010, N-(3-(3-methyl-7-(2-methyl-4-(4-methylpiperazin-1-yl)phenylamino)-2-oxo-3,4-dihydropyrimido[4,5-d]pyrimidin-1(2H)-yl)phenyl)acrylamide], the IC50 on EGFRL861Q was not above 10 nM; in [1], 1450 nM; in assay [2], 173 nM; in assay [3], 41500 nM; on EGFRL858R, not above 10 nM; in assay [4], 53 nM. In addition, the IC50 at EGFRWT, on EGFR T790M kinase and on EGFRL858R + T790M was not above 10 nM throughout.
As for `C=CC(=O)Nc1cccc(N2C(=O)N(c3ccc(OC)cc3)Cc3cnc(Nc4ccc(N5CCN(C)CC5)cc4OC)nc32)c1` [C-EGF25, N-(3-(7-(2-methoxy-4-(4-methylpiperazin-1-yl)phenylamino)-3-(4-methoxyphenyl)-2-oxo-3,4-dihydropyrimido[4,5-d]pyrimidin-1(2H)-yl)phenyl)acrylamide], the IC50 was not above 10 nM at EGFRL861Q; 1230 nM in assay [1]; 501 nM in [2]; 54600 nM in assay [3]; not above 10 nM on EGFRL858R; 198 nM in [4]. Also, the IC50 on EGFRWT, at EGFR T790M kinase and on EGFRL858R + T790M was not above 10 nM in each case.
Turning to `C=CC(=O)Nc1cccc(N2C(=O)N(C)Cc3cnc(Nc4ccccc4)nc32)c1` [C-EGF10, N-(3-(3-methyl-2-oxo-7-(phenylamino)-3,4-dihydropyrimido[4,5-d]pyrimidin-1(2H)-yl)phenyl)acrylamide], the IC50 was 10 to 100 nM on EGFRL861Q; 1580 nM in assay [1]; 213 nM in assay [2]; more than 100000 nM in assay [3]; 10 to 100 nM at EGFRL858R; 28 nM in assay [4]. Also, the IC50 at EGFRWT is not above 10 nM; at EGFR T790M kinase, not above 10 nM; on EGFRL858R + T790M, 10 to 100 nM.
`C=CC(=O)Nc1cccc(N2C(=O)N(C)Cc3cnc(Nc4ccc(N5CCC(N6CCN(C)CC6)CC5)cc4OC)nc32)c1` [C-EGF14, N-(3-(7-(2-methoxy-4-(4-(4-methylpiperazin-1-yl)piperidin-1-yl)phenylamino)-3-methyl-2-oxo-3,4-dihydropyrimido[4,5-d]pyrimidin-1(2H)-yl)phenyl)acrylamide]: the IC50 is not above 10 nM on EGFRL861Q; more than 100000 nM in [1]; 1220 nM in [2]; more than 100000 nM in assay [3]; not above 10 nM on EGFRL858R; 188 nM in assay [4]. The IC50 at EGFRWT was not above 10 nM; at EGFR T790M kinase it was 10 to 100 nM; at EGFRL858R + T790M, 10 to 100 nM.
With `COc1cc(N2CCN(C)CC2)ccc1Nc1ncc2c(n1)N(c1cccc(N)c1)C(=O)N(C)C2` [C-EGF33, 1-(3-aminophenyl)-7-(2-methoxy-4-(4-methylpiperazin-1-yl)phenylamino)-3-methyl-3,4-dihydropyrimido[4,5-d]pyrimidin-2(1H)-one], the IC50 at EGFRL861Q was 1000 to 10000 nM; in assay [1], more than 30000 nM; in assay [2] it was more than 20000 nM; at EGFRL858R it was 100 to 1000 nM; in [4], 4890 nM; on EGFRWT it was 100 to 1000 nM. Also, the IC50 at EGFR T790M kinase and on EGFRL858R + T790M was 1000 to 10000 nM in each case. Moreover, the “inhibitive activity for inhibiting a kinase at a relatively high test concentration” value with EGFR kinase is reported as “poor”.
